Publication PMC2652713, “Molecular Blocking of CD23 Supports Its Role in the Pathogenesis of Arthritis” (PLoS ONE, 2009)

Tested on: adjuvant-induced arthritis in rats
Assay: Histopathologic analysis of AIA lesions
Format: in vivo, rat, Female Lewis
Settings: 50 days after AIA induction
Procedure: Figure 6 Inhibition of in vitro and in vivo inflammatory responses in rats by p30A peptide. (A) Rat peritoneal macrophages were activated via CD23 antigens with/without p30A, L-NIL or pCtl. Cell supernatants were collected 48 h later and nitrite levels were quantified. Values are mean±s.d. of cells from 3 different rats. (B) Cumulative clinical score/rat obtained following 50 days post-immunization in all groups. AIA rats were treated either after or before (d0) the onset of symptoms. Treatment consisted of p30A, hydrocortisone (HC, 30 mg/rat)) or pCtl (100 mg/rat). Shown are means of cumulative score/rat±s.d. from 5 (HC) or 8 rats (other conditions). […]
Adjuvant arthritis was induced in six week-old animals by subcutaneous injection at the base of the tail of 300 µl containing 1.8 mg of inactivated Mycobacterium butyricum (Difco Laboratories, Detroit, MI) diluted in emulsion of 8 ml Vaseline, 1 ml polysorbate 80, and 1 ml PBS (Phosphate Buffer Saline, Eurobio). […] The severity of AIA in each paw was quantified daily using an ordinal clinical score measurement from 0 to 4 as follows: no signs of inflammation ( = 0); swelling alone (>2 fold paw diameter) ( = 1) or swelling/immobility ( = 2) of one paw; swelling ( = 3) or swelling/immobility ( = 4) of two paws. Weight evolution of rats was measured daily. […]

FHENWPS [p30A]
components of AIA arthritic lesions (pannus formation and synovium inflammation, joint/bone deformity, bone remodeling and destruction, bone neoformation, cartilage destruction): significantly decreased all components of AIA arthritic lesions
